In patent publication US20210347780A1, “CDPK1 INHIBITORS, COMPOSITIONS, AND METHODS RELATED THERETO” (Vyera Pharmaceuticals, LLC, priority 2018, published 2021):
Like-named read-outs stand apart in the source and are kept apart here.

Biological target: T1, T. gondii CDPK1 (tgCDPK1) (Toxoplasma gondii, UniProt Q9BJF5)
T1 sequence (Q9BJF5 1-507): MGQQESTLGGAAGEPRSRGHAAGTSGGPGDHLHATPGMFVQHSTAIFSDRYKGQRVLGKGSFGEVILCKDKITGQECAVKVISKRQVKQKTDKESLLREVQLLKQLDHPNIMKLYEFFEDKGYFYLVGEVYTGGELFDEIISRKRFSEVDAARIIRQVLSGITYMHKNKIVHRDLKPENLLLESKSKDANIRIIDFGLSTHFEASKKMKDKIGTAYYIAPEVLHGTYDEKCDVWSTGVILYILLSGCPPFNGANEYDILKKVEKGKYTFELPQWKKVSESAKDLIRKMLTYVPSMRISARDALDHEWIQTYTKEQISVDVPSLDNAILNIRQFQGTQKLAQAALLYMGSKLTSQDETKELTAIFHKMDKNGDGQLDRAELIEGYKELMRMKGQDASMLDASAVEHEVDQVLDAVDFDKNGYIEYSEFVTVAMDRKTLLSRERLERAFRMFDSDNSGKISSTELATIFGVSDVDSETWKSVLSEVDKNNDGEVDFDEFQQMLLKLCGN
Test: biochemical
Settings: at least three independent replicates
Method: Certain of the compounds prepared as described above were assayed to determine their IC50 for inhibition of T. gondii CDPK1 (tgCDPK1). At least three independent replicates of the assay were conducted for each compound tested.

[1] = inhibition of T. gondii CDPK1, read-out: tgCDPK1 IC50

| Compound | IC50 [1] | IC50 (tgCDPK1 IC50, inhibition of T. gondii CDPK1) |
| --- | --- | --- |
| Nc1ncnc2c1c(Oc1cc(C(F)(F)F)ccn1)nn2[C@H]1CCCC[C@H]1O (racemic) [191 cis (rac)] | 44 nM | – |
| Nc1ncnc2c1c(Oc1cc(C(F)(F)F)ccn1)nn2[C@@H]1CCCC[C@H]1O (racemic) [191 trans (rac)] | 25 nM | – |
| Nc1ncnc2c1c(Oc1cc(O)ccn1)nn2[C@@H]1CCCC[C@H]1O (single isomer, unassigned) [Compound 283] | 147 nM | – |
| Nc1ncnc2c1c(Oc1cc(O)ccn1)nn2[C@@H]1CCCC[C@@H]1O (single isomer, unassigned) [Compound 284] | 39.2 nM | – |
| COc1ccnc(Oc2nn([C@@H]3CCCC[C@H]3O)c3ncnc(N)c23)c1 (single isomer, unassigned) [Compound 285] | 1400 nM | – |
| COc1ccnc(Oc2nn([C@H]3CCCC[C@H]3O)c3ncnc(N)c23)c1 (single isomer, unassigned) [Compound 286] | 144 nM | – |
| Nc1ncnc2c1c(Oc1cc(C(F)(F)F)ccn1)nn2[C@@H]1CCCC[C@H]1O [191 (R,R)] | 8.4 nM | – |
| Nc1ncnc2c1c(Oc1cc(C(F)(F)F)ccn1)nn2[C@H]1CCCC[C@@H]1O [191 (S,S)] | 125 nM | – |
| Nc1ncnc2c1c(Oc1cc(CO)ccn1)nn2C1CC1 [Compound 86, (2-((4-amino-1-cyclopropyl-1H-pyrazole[3,4-d]pyrimidin-3-yl)oxy)pyridin-4-yl)methanol] | 29.6 nM | – |
| COc1ccnc(Oc2nn(C3CCC3)c3ncnc(N)c23)c1 [Compound 112, 1-cyclobuty1-3-((4-methoxypyridin-2-yl)oxy)-1H-pyrazolo[3,4-d]pyrimidin-4-amine] | 14.6 nM | – |
| Nc1ncnc2c1c(Oc1cc(C(F)(F)F)ccn1)nn2[C@H]1C[C@H](O)C1 [Compound 113, (trans)-3-(4-amino-3-((4-(trifluoromethyl)pyridin-2-yl)oxy)-1H-pyrazolo[3,4-d]pyrimidin-1-yl)cyclobutan-1-ol] | 26.5 nM | – |
| Nc1ncnc2c1c(Oc1cc(Cl)ccn1)nn2[C@H]1C[C@H](O)C1 [Compound 116] | 15.4 nM | – |
| Nc1ncnc2c1c(Oc1cccc(Cl)c1)nn2C1CCC1 [Compound 121, 3-(3-chlorophenoxy)-1-cyclobutyl-1H-pyrazolo[3,4-d]pyrimidin-4-amine] | 7.41 nM | – |
| Nc1ncnc2c1c(Cc1cccc(Cl)c1)nn2[C@H]1C[C@H](O)C1 [Compound 124, (trans)-3-(4-amino-3-(3-chlorobenzyl)-1H-pyrazolo[3,4-d]pyrimidin-1-yl)cyclobutan-1-ol] | 8.87 nM | – |
| Nc1ncnc2c1c(Cc1cccc(C(F)(F)F)c1)nn2[C@H]1C[C@H](O)C1 [Compound 125] | 36 nM | – |
| Nc1ncnc2c1c(Cc1cccc(Br)c1)nn2[C@H]1C[C@H](O)C1 [Compound 127] | 18.4 nM | – |
| Nc1ncnc2c1c(Cc1cccc(F)c1)nn2[C@H]1C[C@H](O)C1 [Compound 128] | 28.3 nM | – |
| Nc1ncnc2c1c(Cc1cccc(Cl)c1)nn2[C@H]1C[C@@H](O)C1 [Compound 130, (cis)-3-(4-amino-3-(3-chlorobenzyl)-1H-pyrazolo[3,4-d]pyrimidin-1-yl)cyclobutan-1-ol] | 15.1 nM | – |
| Nc1ncnc2c1c(Cc1cccc(Br)c1)nn2[C@H]1C[C@@H](O)C1 [Compound 131] | 11.4 nM | – |
| Nc1ncnc2c1c(Cc1cccc(F)c1)nn2[C@H]1C[C@@H](O)C1 [Compound 132] | 28.4 nM | – |
| Nc1ncnc2c1c(Cc1cccc(Cl)c1)nn2[C@H]1C[C@@H](F)C1 [Compound 135, 3-(3-chlorobenzyl)-1-((cis)-3-fluorocyclobutyl)-1H-pyrazolo[3,4-d]pyrimidin-4-amine] | 7.05 nM | – |
| Nc1ncnc2c1c(Oc1cccc(C(F)(F)F)c1)nn2[C@H]1C[C@@H](O)C1 [Compound 151] | 31.3 nM | – |
| Nc1ncnc2c1c(Oc1cccc(Cl)c1)nn2[C@H]1C[C@@H](O)C1 [Compound 152] | 27.3 nM | – |

| Compound | IC50 [1] | IC50 (tgCDPK1 IC50, inhibition of T. gondii CDPK1) |
| --- | --- | --- |
| Nc1ncnc2c1c(Oc1cccc(Cl)c1)nn2[C@H]1C[C@H](F)C1 [Compound 156] | 10 nM | – |
| Nc1ncnc2c1c(Cc1c[nH]c3ccc(F)cc13)nn2[C@H]1C[C@H](F)C1 [Compound 157] | 11 nM | – |
| Nc1ncnc2c1c(Oc1cc(C(F)(F)F)ccn1)nn2C1CC1 [Compound 159] | 13 nM | – |
| Nc1ncnc2c1c(Cc1cccc(F)c1)nn2[C@H]1C[C@H](F)C1 [Compound 161] | 14.2 nM | – |
| COc1ccnc(Oc2nn([C@H]3C[C@H](F)C3)c3ncnc(N)c23)c1 [Compound 162] | 17.4 nM | – |
| Nc1ncnc2c1c(Oc1cc(Cl)ccn1)nn2[C@H]1C[C@@H](O)C1 [Compound 163] | 18 nM | – |
| Nc1ncnc2c1c(Cc1cccc(F)c1)cn2[C@H]1C[C@H](O)C1 [Compound 164] | 28.3 nM | – |
| Nc1ncnc2c1c(Oc1cc(C3CC3)ccn1)nn2C1CC1 [Compound 165] | 28.9 nM | – |
| Nc1ncnc2c1c(Oc1cccc(C(F)(F)F)c1)nn2[C@H]1C[C@H](F)C1 [Compound 166] | 28.9 nM | – |
| COc1ccnc(Oc2nn([C@H]3C[C@@H](O)C3)c3ncnc(N)c23)c1 [Compound 168] | 37.1 nM | – |
| Nc1ncnc2c1c(Oc1cc(OC(F)(F)F)ccn1)nn2C1CC1 [Compound 169] | 37.7 nM | – |
| Nc1ncnc2c1c(Oc1cc(C(F)(F)F)ccn1)nn2[C@H]1C[C@@H](O)C1 [Compound 170] | 38.6 nM | – |
| Nc1ncnc2c1c(Oc1cccc(Cl)c1)nn2[C@H]1C[C@H](F)C1 [Compound 171] | – | 41.1 nM |
| N#Cc1cccc(Cc2nn([C@H]3C[C@H](F)C3)c3ncnc(N)c23)c1 [Compound 172] | 45.9 nM | – |
| N#Cc1cccc(Oc2nn([C@H]3C[C@H](F)C3)c3ncnc(N)c23)c1 [Compound 173] | 49.8 nM | – |
| NC(=O)c1ccnc(Oc2nn([C@H]3C[C@H](F)C3)c3ncnc(N)c23)c1 [Compound 174] | 69.7 nM | – |
| COc1ccnc(Oc2nn([C@H]3C[C@H](F)C3)c3ncnc(N)c23)c1 [Compound 175] | 17.4 nM | – |
| N#Cc1cccc(Oc2nn([C@H]3C[C@H](O)C3)c3ncnc(N)c23)c1 [Compound 178] | 79.6 nM | – |
| Nc1ncnc2c1c(Oc1cccc(C(F)(F)F)c1)nn2[C@H]1C[C@H](O)C1 [Compound 179] | 47.9 nM | – |
| Nc1ncnc2c1c(Cc1c[nH]c3ccc(F)cc13)nn2[C@H]1C[C@H](O)C1 [Compound 184] | 10.2 nM | – |
| Nc1ncnc2c1c(Oc1cc(C(F)(F)F)ccn1)nn2C1CCC(F)(F)CC1 [Compound 185] | 38.4 nM | – |
| Nc1ncnc2c1c(Oc1cc(C(F)(F)F)ccn1)nn2CC1CC1 [Compound 186] | 22.4 nM | – |
| Nc1ncnc2c1c(Oc1cc(O)ccn1)nn2C1CCC(F)(F)CC1 [Compound 187, 2-((4-amino-1-(4,4-difluorocyclohexyl)-1H-pyrazolo[3,4-d]pyrimidin-3-yl)oxy)pyridin-4-ol] | 10 nM | – |

| Compound | IC50 [1] | IC50 (tgCDPK1 IC50, inhibition of T. gondii CDPK1) |
| --- | --- | --- |
| Nc1ncnc2c1c(Oc1cc(Cl)ccn1)nn2C1CCNCC1 [Compound 188] | 29.7 nM | – |
| Nc1ncnc2c1c(Oc1cc(Cl)ccn1)nn2C1CCCNC1 (stereo not shown) [Compound 189] | ~24 nM | – |
| Nc1ncnc2c1c(Oc1cc(C(F)(F)F)ccn1)nn2C1CNCC(F)(F)C1 (stereo not shown) [Compound 190] | ~54 nM | – |
| Nc1ncnc2c1c(Oc1cc(C(F)(F)F)ccn1)nn2C1CCCC1 [Compound 192] | 19.2 nM | – |
| Nc1ncnc2c1c(Oc1cc(C(F)(F)F)ccn1)nn2C1CCOC1 (stereo not shown) [Compound 193] | 47.7 nM | – |
| Nc1ncnc2c1c(Oc1cc(C(F)(F)F)ccn1)nn2C1CCNCC1 [Compound 194] | 67.8 nM | – |
| Nc1ncnc2c1c(Oc1cc(C(F)(F)F)ccn1)nn2C1CCCNC1 (stereo not shown) [Compound 195] | 56.8 nM | – |
| CC(C)(C)OC(=O)N1CCC(Cn2nc(Oc3cc(C(F)(F)F)ccn3)c3c(N)ncnc32)C(F)(F)C1 (stereo not shown) [Compound 196] | 64.8 nM | – |
| Nc1ncnc2c1c(Oc1cc(C(F)(F)F)ccn1)nn2CC1CCNCC1(F)F (stereo not shown) [Compound 197] | 13.8 nM | – |
| Nc1ncnc2c1c(Oc1cc(C(F)(F)F)ccn1)nn2C1CCOCC1 [Compound 198] | 29.4 nM | – |
| CC(C)(C)OC(=O)N1CCC(n2nc(Oc3cc(C(F)(F)F)ccn3)c3c(N)ncnc32)C1 (stereo not shown) [Compound 199] | 38.9 nM | – |
| Nc1ncnc2c1c(Oc1cc(C(F)(F)F)ccn1)nn2C1CCCCC1 [Compound 200] | 14.7 nM | – |
| Nc1ncnc2c1c(Oc1cc(Cl)ccn1)nn2C1CCCC1 [Compound 201] | 16.7 nM | – |
| Nc1ncnc2c1c(Oc1cc(Cl)ccn1)nn2C1CCOC1 (stereo not shown) [Compound 202] | 55.7 nM | – |
| N#Cc1ccnc(Oc2nn(C3CCC(F)(F)CC3)c3ncnc(N)c23)c1 [Compound 203] | 84.8 nM | – |
| NC(=O)c1ccnc(Oc2nn(C3CCCC3)c3ncnc(N)c23)c1 [Compound 204] | 67 nM | – |
| NC(=O)c1ccnc(Oc2nn(C3CCCCC3)c3ncnc(N)c23)c1 [Compound 205] | 26.8 nM | – |
| NC(=O)c1ccnc(Oc2nn(C3CCC(F)(F)CC3)c3ncnc(N)c23)c1 [Compound 206] | 96.8 nM | – |
| N#Cc1ccnc(Oc2nn([C@H]3CC[C@@H](C(F)(F)F)CC3)c3ncnc(N)c23)c1 [Compound 207] | 23.7 nM | – |
| NC(=O)c1ccnc(Oc2nn([C@H]3CC[C@@H](C(F)(F)F)CC3)c3ncnc(N)c23)c1 [Compound 208] | 90.1 nM | – |
| N#Cc1ccnc(Oc2nn([C@H]3CC[C@H](C(F)(F)F)CC3)c3ncnc(N)c23)c1 [Compound 209] | 26 nM | – |
